Assay results: paper PMC7930822, “Phase I Trial to Evaluate the Tolerance, Pharmacokinetics and Efficacy of the Broad-Spectrum ErbB Family Inhibitor Larotinib Mesylate in Patients With Advanced Solid Tumors” (Frontiers in Pharmacology, 2021)
Structures can show the parent of a compound that is named as a salt.

System: patients with advanced solid tumors
Assay: phase I safety and tolerance (NCI CTCAE version 4.03, DLTs)
Assay type: in vivo, human
Description: This was a phase I, single-center, open-label, dose-escalation study conducted at First Hospital of Jilin University, China (registration no.: ChiCTR-OPC-15007153 registered at http://www.chictr.org.cn). Larotinib mesylate hard capsules were produced and supplied by Sunshine Lake Pharma Co., Ltd (Guangdong Province, China) in different unit doses of […] under GMP condition. Seven dose levels were designed in the study: 50, 100, 150, 220, 300, 350, and 400 mg with administration stages labeled cycle 0, cycle 1, and subsequent treatment cycles. Patients received an oral single dose of larotinib mesylate after fasting during a 6-days cycle 0 to evaluate the tolerance and pharmacokinetic characteristics. After cycle 0, larotinib mesylate was continuously administered once daily for 28 days in cycle 1, and the tolerance and pharmacokinetic characteristics of multiple doses were evaluated (Figure 2). The patients who […] disease control (complete response [CR], partial response [PR], or stable disease [SD]) at the end of cycle one were permitted to participate in the subsequent 28-days treatment cycles until progressive disease (PD) or intolerance was observed.
We enrolled three to six patients for each dose level, with the goal of having at least three patients complete the cycle 0 and cycle 1 treatments. We made an enrollment regulation for the extra patients (>3) according to the study stage of the last enrolled patient in the present dose level: If the patient had finished cycle 1 day 22, extra screened patients would be enrolled to the next dose level; if not, the current dose level would be selected. If 1/3 of patients experienced a DLT in cycle 0 or cycle 1, expansion to six patients was required for the current dose level.
DLTs were observed according to the NCI CTCAE version 4.03 and defined as the emergence of any of the following drug-related AEs: hematological toxicity including Grade ≥3 neutropenia or thrombocytopenia and other Grade ≥4 hematological toxicity; nonhematological toxicities including Grade ≥2 atrioventricular block or renal injury; Grade ≥2 nausea, emesis, or diarrhea for ≥7 days despite optimal treatment; Grade ≥3 nausea, emesis, diarrhea, or rash despite supportive care; and alanine aminotransferase (ALT) or aspartate aminotransferase (AST) elevation by more than 5 times the upper limits of normal for ≥7 days and other Grade ≥3 nonhematological toxicities.
Safety was assessed according to the NCI CTCAE version 4.03 including AEs, vital signs, and results from 12-lead […], cardiac ultrasound, physical examination, ophthalmic testing, and clinical laboratory tests. Dosage adjustments could be applied from cycle 2 according to the severity of the toxicities. Drug administration would be suspended when drug-related AEs were graded at 3 or 4, and the original dose or reduction dose would be given if the AEs returned to baseline or Grade 1 (nonhematological toxicities)/grade 2 (hematological toxicities) within 14 days.

For `COc1cc2ncnc(Nc3ccc(F)c(Cl)c3)c2cc1OCCCN1C[C@@H]2OCCO[C@@H]2C1` [larotinib mesylate], the MTD in patients (50–400 mg/d oral) was “no MTD established”, the “Grade 3 drug-related decreased lymphocytes” value (human, in vivo) was 12% and the “Grade 3 drug-related diarrhea” value (human, in vivo) was 4%. For the same compound, the “Grade 3 drug-related nausea” value (human, in vivo) was 4%, the “drug-related acne-like rash, incidence” value (human, in vivo) was 68.0% and the “drug-related anemia, incidence” value (human, in vivo) was 48.0%. The “drug-related decreased lymphocyte percentage, incidence” value (human, in vivo) was 40.0%, the “drug-related diarrhea, incidence” value (human, in vivo) was 48.0% and the “drug-related hand-foot skin reaction, incidence” value (human, in vivo) was 44.0%. The “drug-related hypoalbuminemia, incidence” value (human, in vivo) was 32.0%, the “drug-related nausea, incidence” value (human, in vivo) was 36.0% and the “drug-related paronychia, incidence” value (human, in vivo) was 48.0%. For the same compound, the “drug-related stomatitis, incidence” value (human, in vivo) was 44.0%, the “drug-related weight loss, incidence” value (human, in vivo) was 32.0% and the “patients with Grade 3 drug-related AEs” value (human, in vivo) was 20%. For the same compound, the “patients with at least one drug-related AE” value (human, in vivo) was 96%.
